{"source": "the RepoRT retention time repository"}
{"test": "RP, Thermo Scientific Hypersil GOLD, 1.9 µm, 40 °C, 0.4 mL/min; A: water + 0.1% formic acid, pH 3; B: acetonitrile + 0.1% formic acid, pH 3; gradient (min/%B) 0/0 1/0 11/100 13/100 14/0 16/0", "settings": "stereoisomer not certain", "units": {"LC retention time": "min"}}
{"molecule": "CC(C)CC(=O)OC(CC(=O)[O-])C[N+](C)(C)C", "note": "[Isovaleryl-L-carnitine]", "LC retention time": 4.92}
{"molecule": "O=C(O)CCCCC1SCC2NC(=O)NC21", "note": "(stereo not drawn) [BIOTIN]", "LC retention time": 5.15}
{"molecule": "CCCCCCCCCCCCCC(=O)OCC(O)CO", "note": "(stereo not drawn) [GLYCEROL-MYRISTATE]", "LC retention time": 11.2}
{"molecule": "Nc1ncnc2c1ncn2C1OC(COP(=O)(O)OP(=O)(O)OC2OC(CO)C(O)C(O)C2O)C(O)C1O", "note": "(stereo not drawn) [ADP-GLUCOSE]", "LC retention time": 1.27}
{"molecule": "CC(=O)N[C@@H](Cc1ccc(O)cc1)C(=O)O", "note": "[N-Acetyl-L-tyrosine]", "LC retention time": 4.56}
{"molecule": "CCC(O)C(=O)[O-]", "note": "(stereo not drawn) [2-HYDROXYBUTYRATE]", "LC retention time": 1.71}
{"molecule": "NCC(=O)CCC(=O)O", "note": "[5-AMINOLEVULINATE]", "LC retention time": 0.64}
{"molecule": "NC(C(=O)O)C(O)C(O)C(O)CO", "note": "(stereo not drawn) [GLUCOSAMINATE]", "LC retention time": 0.62}
{"molecule": "O=C(O)C(=O)Cc1c[nH]c2ccccc12", "note": "[INDOLE-3-PYRUVATE]", "LC retention time": 6}
{"molecule": "Nc1nc2nccnc2c(=O)[nH]1", "note": "[PTERIN]", "LC retention time": 0.82}
{"molecule": "O=C(O)c1cncc(O)c1", "note": "[5-Hydroxynicotinic acid]", "LC retention time": 0.83}
{"molecule": "CCCCCCCCC=CCCCCCCCCCCCC(=O)O", "note": "[ERUCATE]", "LC retention time": 13.5}
{"molecule": "O=c1[nH]cc(CO)c(=O)[nH]1", "note": "[5-HYDROXYMETHYLURACIL]", "LC retention time": 0.82}
{"molecule": "O=C(O)c1cc[n+]([O-])cc1", "note": "[Isonicotinic acid N-oxide]", "LC retention time": 0.81}
{"molecule": "OC1C(O)C(O)C(O)C(O)C1O", "note": "(stereo not drawn) [MYOINOSITOL]", "LC retention time": 0.61}
{"molecule": "CCCCCC(=O)OC(CC(=O)[O-])C[N+](C)(C)C", "note": "[Hexanoyl-L-carnitine]", "LC retention time": 5.67}
{"molecule": "C=CC1=C(C)C(C=c2[nH]c(=Cc3[nH]c(C=C4NC(=O)C(C)=C4C=C)c(C)c3CCC(=O)O)c(CCC(=O)O)c2C)=NC1=O", "note": "[BILIVERDIN]", "LC retention time": 7.99}
{"molecule": "O=Cc1ccc(O)cc1", "note": "[4-HYDROXYBENZALDEHYDE]", "LC retention time": 5.13}
{"molecule": "CC(=O)N[C@@H]1[C@@H](O)[C@H](O)[C@@H](CO)O[C@H]1N", "note": "[2-ACETAMIDO-2-DEOXY-BETA-D-GLUCOSYLAMINE]", "LC retention time": 0.6}
{"molecule": "C=C(C)C1CC=C(C)C(=O)C1", "note": "[(R)-(-)-Carvone]", "LC retention time": 8.19}
{"molecule": "O=P(O)(O)OCC1OC(O)C(O)C1O", "note": "[D-RIBOSE 5-PHOSPHATE]", "LC retention time": 0.65}
{"molecule": "COC1=C(OC)C(=O)C(CC=C(C)C)=C(C)C1=O", "note": "[coenzyme Q1]", "LC retention time": 9.21}
{"molecule": "Nc1ccccc1C(=O)CC(N)C(=O)O", "note": "(stereo not drawn) [KYNURENINE]", "LC retention time": 3.31}
{"molecule": "N[C@@H](Cc1ccc(O)c([N+](=O)[O-])c1)C(=O)O", "note": "[3-NITRO-L-TYROSINE]", "LC retention time": 3.77}
{"molecule": "O=C(O)c1ccnc2ccccc12", "note": "[4-QUINOLINECARBOXYLIC ACID]", "LC retention time": 1.29}
{"molecule": "NCCOP(=O)(O)O", "note": "[O-PHOSPHOETHANOLAMINE]", "LC retention time": 0.61}
{"molecule": "O=c1ccc2cc(O)ccc2[nH]1", "note": "[2-6-quinolinediol]", "LC retention time": 4.44}
{"molecule": "O=C1CCNC(=O)N1", "note": "[DIHYDROURACIL]", "LC retention time": 0.82}
{"molecule": "NC(=O)c1ncn(C2OC(COP(=O)(O)O)C(O)C2O)c1N", "note": "(stereo not drawn) [AICAR]", "LC retention time": 0.76}
{"molecule": "CC12CCC(=O)C=C1CCC1C2CCC2(C)C1CCC2(O)C(=O)CO", "note": "(stereo not drawn) [CORTEXOLONE]", "LC retention time": 7.48}
{"molecule": "Nc1ccc(C(=O)O)cn1", "note": "[6-Aminopyridine-3-carboxylic acid]", "LC retention time": 0.87}
{"molecule": "NC(Cc1cc(I)c(Oc2ccc(O)c(I)c2)c(I)c1)C(=O)O", "note": "(stereo not drawn) [LIOTHYRONINE]", "LC retention time": 6.99}
{"molecule": "Nc1ccccc1C(=O)O", "note": "[ANTHRANILATE]", "LC retention time": 5.29}
{"molecule": "CC(C)CC(=O)NCC(=O)O", "note": "[Isovaleroylglycine]", "LC retention time": 4.6}
{"molecule": "Cn1cnc2c1c(=O)[nH]c(=O)n2C", "note": "[THEOBROMINE]", "LC retention time": 4.02}
{"molecule": "c1ccc2ncccc2c1", "note": "[QUINOLINE]", "LC retention time": 3.83}
{"molecule": "CC(=O)NC(Cc1ccccc1)C(=O)O", "note": "(stereo not drawn) [N-ACETYLPHENYLALANINE]", "LC retention time": 5.73}
{"molecule": "CN(C)c1ccc(N)cc1", "note": "[N-N-DIMETHYL-1-4-PHENYLENEDIAMINE]", "LC retention time": 0.83}
{"molecule": "Nc1nc2c(ncn2C2OC(COP(=O)(O)O)C(O)C2O)c(=O)[nH]1", "note": "(stereo not drawn) [GUANOSINE MONOPHOSPHATE]", "LC retention time": 0.81}
{"molecule": "NCc1ccccc1", "note": "[BENZYLAMINE]", "LC retention time": 3.59}
{"molecule": "CCCCCCCCC=CCCCCCCCC(=O)OCC(O)COP(=O)([O-])OCC[N+](C)(C)C", "note": "(stereo not drawn) [18-1_LysoPC]", "LC retention time": 0.61}
{"molecule": "C=Cc1c(C)c2cc3[nH]c(cc4nc(cc5nc(cc1[nH]2)C(C)=C5CCC(=O)O)C(CCC(=O)O)=C4C)c(C)c3C=C", "note": "[PROTOPORPHYRIN]", "LC retention time": 11.7}
{"molecule": "O=C(O)CCCC(=O)C(=O)O", "note": "[2-OXOADIPATE]", "LC retention time": 1.05}
{"molecule": "Nc1ncnc2c1ncn2C1OC(CO)C(O)C1O", "note": "(stereo not drawn) [ADENOSINE]", "LC retention time": 0.86}
{"molecule": "NC(=O)c1ccc[n+](C2OC(COP(=O)([O-])O)C(O)C2O)c1", "note": "(stereo not drawn) [NICOTINAMIDE MONONUCLEOTIDE]", "LC retention time": 0.68}
{"molecule": "O=CC(O)C1OC(=O)C(O)C1O", "note": "[D-GLUCURONOLACTONE]", "LC retention time": 0.71}
{"molecule": "COC1C(O)C(CO)OC1n1cnc2c(=O)[nH]cnc21", "note": "(stereo not drawn) [2'-O-Methylinosine]", "LC retention time": 3.73}
{"molecule": "CC(=O)C1(O)CCC2C3CC=C4CC(O)CCC4(C)C3CCC21C", "note": "(stereo not drawn) [17a-Hydroxypregnenolone]", "LC retention time": 0.67}
{"molecule": "O=CC(O)CO", "note": "(stereo not drawn) [GLYCERALDEHYDE]", "LC retention time": 0.64}
{"molecule": "O=C(O)CNC(=O)c1ccccc1O", "note": "[o-Hydroxyhippuric acid]", "LC retention time": 5.5}
{"molecule": "CC(=O)NC(CC(=O)O)C(=O)O", "note": "(stereo not drawn) [N-ACETYLASPARTATE]", "LC retention time": 0.83}
{"molecule": "O=c1cccc[nH]1", "note": "[2-HYDROXYPYRIDINE]", "LC retention time": 1.6}
{"molecule": "Cn1c[n+](C2OC(CO)C(O)C2O)c2nc(N)[nH]c(=O)c21", "note": "(stereo not drawn) [7-Methylguanosine]", "LC retention time": 0.83}
{"molecule": "Oc1cc(O)c2c(c1)OC(c1ccc(O)c(O)c1)C(O)C2", "note": "(single isomer, unassigned; (+)) [(+)-Catechin hydrate]", "LC retention time": 4.73}
{"molecule": "CC(=O)NC(CCC(=O)O)C(=O)O", "note": "(stereo not drawn) [N-ACETYLGLUTAMATE]", "LC retention time": 0.93}
{"molecule": "O=C(C=Cc1ccc(O)c(O)c1)OC(Cc1ccc(O)c(O)c1)C(=O)O", "note": "(stereo not drawn) [ROSMARINATE]", "LC retention time": 6.02}
{"molecule": "COc1cc(C=CC(=O)O)ccc1O", "note": "[FERULATE]", "LC retention time": 5.67}
{"molecule": "Cc1cc2nc3c(=O)[nH]c(=O)nc-3n(CC(O)C(O)C(O)CO)c2cc1C", "note": "(stereo not drawn) [RIBOFLAVIN]", "LC retention time": 5.05}
{"molecule": "O=c1ccn(C2CC(O)C(COP(=O)(O)O)O2)c(=O)[nH]1", "note": "(stereo not drawn) [DEOXYURIDINE-MONOPHOSPHATE]", "LC retention time": 0.82}
{"molecule": "NC(CSCC(=O)O)C(=O)O", "note": "(stereo not drawn) [S-CARBOXYMETHYLCYSTEINE]", "LC retention time": 0.68}
{"molecule": "O=C(O)CCCCC1CCSS1", "note": "(racemic)", "LC retention time": 7.53}
{"molecule": "Nc1ccc(C(=O)NCC(=O)O)cc1", "note": "[Aminohippuric acid]", "LC retention time": 1.77}
{"molecule": "CCCCC(CC)COC(=O)c1ccccc1C(=O)OCC(CC)CCCC", "note": "(stereo not drawn) [BIS(2-ETHYLHEXYL)PHTHALATE]", "LC retention time": 13}
{"molecule": "CCCC(N)C(=O)O", "note": "(stereo not drawn) [NORVALINE]", "LC retention time": 0.82}
{"molecule": "CC(CCC(=O)O)C1CCC2C3CCC4CC(=O)CCC4(C)C3CCC12C", "note": "(stereo not drawn) [5b-cholanic acid-3-ONE]", "LC retention time": 10.7}
{"molecule": "O=C(O)c1ccc[nH]1", "note": "[PYRROLE-2-CARBOXYLATE]", "LC retention time": 4.3}
{"molecule": "CC(C)=CCCC(C)C1CCC2C3CC=C4CC(O)CCC4(C)C3CCC12C", "note": "(stereo not drawn) [DESMOSTEROL]", "LC retention time": 13.9}
{"molecule": "CC(=O)NC(CO)C(=O)O", "note": "(stereo not drawn) [N-ACETYLSERINE]", "LC retention time": 0.78}
